Series [1] has as its system wildtype mice (C57BL/6). The series is described as follows: Rotarod performance in wildtype mice. Type of series: in vivo. The note with it: 50 mg/kg ip, one hour after dosing, Day 5. The protocol:
FIG. 9. Effects of TP70 on mouse rotarod performance. The mice were trained three times every day for 4 days to reach its maximal performance using SmartCage Rotarod device (with a setting of a constant speed at 15 […] per minute).
To further assess side effects on motor activity, and particularly balance and muscle coordination, rotarod performance was conducted by the wildtype mice (C57BL/6 female, 2 months old, n=7). Vehicle injection (i.p) was given after the Day 4 training to assess any effects of vehicle or injection per se. On Day 5, one hour after TP70 (50 mg/kg, ip) the mice were subject to the rotarod test.
(In general: Falling from the rotarod earlier than controls is read as motor impairment.)

Series [2] in a line: log P by octanol/water partition. Type of series: physicochemical.
Series [3] deals with ACAT. The series is described as follows: ACAT inhibition. The note with it: read-out: half maximal inhibitory concentration (IC50), ACAT. It is filed as biochemical. The source says: (§1) It has been reported that an induction of cholesterol efflux resulting in a reduction of Aβ formation/deposition in vitro and in vivo (Kim, et al., J Alzheimers Dis, 2009, 16:121-131). For additional Detail, see the attached manuscript entitled, “Inhibition of Acyl-CoA: Cholesterol Acyltransferase (ACAT), Overexpression of Cholesterol Transporter Gene, and Protection of Amyloid β (Aβ) Oligomers-Induced Neuronal Cell Death by Tricylic Pyrone Molecules” which is incorporated herein.

The subject of series [4] is MC65 neuroblastoma cells. The series is described as follows: MC65 protection assay. Type of series: cell-based. The protocol: Employing medium-throughput cell-based MC65 protection assay to screen over one hundred TP compounds, seven TP compounds that protect MC65 neuroblastoma cells from death caused by intracellular Aβ have been identified. […] The EC50 values for CP2, TP70, and TP101 are 120, 80, and 70 nM, respectively.

Series [5] deals with ABCA1 cholesterol transporter gene. The series is described as follows: Increase of ABCA1 cholesterol transporter gene. Type of series: cell-based.
Text: as §1

Series [6] concerns APP/PS1 mice. The series is described as follows: SmartCage homecage activity and locomotion in APP/PS1 mice. It is filed as in vivo. The following applies: Day 7, TP70 in drinking water, treatment versus control group. As to the method:
FIGS. 8A-8D. Effects of TP70 on homecage activity and locomotion in homecage monitored using the SmartCage™ system A. Active time in each time block during 24 hours. B. Travel distance in each time block during 24 hours. C. Travel speed in each time block during 24 hours. D. Rearing activity in each time block during 24 hours. The gray shadow indicates dark phase of a 12:12 light/dark cycle.
The validated SmartCage™ system that enables automated, objective, quantitative and long-term evaluation of neuropsychological endpoints at the animal's home cages (Flores, et al., IEEE Trans Biomed Eng, 2007, 54:225-233; Xiong, et al., Stroke, 2011, 42:2026-2032; Carter, et al., Nat Neurosci, 2010, 13:1526-1533; Khroyan, et al., Clin Exp Pharmacol Physiol, 2012, 39:614-622) was used to complement other special individual learning and memory tests (Shineman, et al., Alzheimers Res Ther, 2011, 3:28; Hamann, et al., Neuropsychologia, 2002, 40:1187-1195; Aultman, et al., Psychopharmacology (Berl), 2001, 153:353-364; Ashe, K H, J Alzheimers Dis, 2006, 9:123-126). […] Homecage activity and locomotion were assessed on Day 7 after the treatment and the blood samples were collected from each mouse after the assessment of general behavior. […]

The test system of series [7] is 5×FAD mice. The series is described as follows: In vivo efficacy in 5×FAD mice. The protocol:
FIGS. 6A-6E. 2-month-old 5×FAD mice were treated with TP70 or vehicle for 6 weeks as described in the text. Four cortical sections evenly distributed through the cerebrum were taken from one hemisphere of each mouse (6 mice in each treatment group) and fluorescently stained with the amyloid dye FSB (blue) and the nuclear dye propidium iodide (PI, red). A: Representative sections that show the PI stain. B: Representative sections that only show the FSB stain. C: Fluorescent staining was objectively quantified by LSC. […] E: A representative Western blot containing the soluble fractions of three mice of each group was analyzed for soluble Aβ dimer (see ref 59 for the method).
Although the mechanism of neuron loss in Alzheimer's disease (AD) remains elusive, it is associated with cerebral accumulation of Aβ42. The 5×FAD mouse model of amyloid deposition expresses five familial AD (FAD) mutations that are additive in driving Aβ42 overproduction.

Here are results for 1 compound from patent US9802962B2, “Tricyclic pyrone compounds reduce amyloid beta aggregates” (priority 2013, dated 2017).

Turning to `Cc1cc2c(c(=O)o1)C=C1CCC(C(C)CNCc3ccc(O)cc3)CC1O2` (centres unmarked) [TP70], in series [1], the rotarod performance entry was “insignificant effects”. Moreover, the log P (as a rule, the decadic logarithm of the partition coefficient of the neutral form, usually between octanol and water) in series [2] is on record as 1.90. Further, the IC50 in series [3] is 300 nM. In addition, the “concentration required for cell toxicity protection” value in series [4] is “submicromolar”. Besides, the “EC50 values (in words)” value in series [4] (protection of MC65 cells from death caused by intracellular Aβ) is “nanomolar range”. Also, the EC50 in series [4] (protection of MC65 cells from death caused by intracellular Aβ, read-out: effective concentrations for 50% cell survival (EC50)) was determined as 80 nM. Further, the EC50 in series [5] was 1100 nM. Further, the “homecage activity and locomotion” value in series [6] is recorded as “no significant differences”. For the same compound, the “plaque count (FSB stain), cortical sections” value in series [7] (2-month-old 5×FAD mice, 6 weeks oral treatment, versus vehicle, LSC) is “substantial reduction of plaque count”. In series [7] (2-month-old 5×FAD mice, 6 weeks treatment, versus vehicle, LSC), the “nuclear count (PI stain), cortical sections” value is on record as “no difference in nuclear count”. For the same compound, in series [7] (5×FAD mice), the cerebral amyloid load entry was “substantially reduce”; the “drug toxicity during the course of treatment” value is reported as “no apparent drug toxicity”; the “histopathology, hematological counts, and blood chemistry at necropsy” value is listed as “No abnormalities”; the “levels of toxic Aβ dimers” value was “substantially reduce”.
